Test results from patent US20120245229A1, “METHOD FOR TREATING NEUROPATHIC PAIN” (priority 2009, published 2012).

Key:
naïve mice = assay: Basal pain thresholds in naive mice; format: in vivo; settings: intrathecal
Description: (§1) Behavioral analysis. Mice were habituated in the testing environment for two days and performed behavioral testing in a blinded manner. Formalin-evoked spontaneous inflammatory pain was assessed by measuring duration (seconds) animals spent on licking/flinching the affected paws every 5 min for 45 min. Capsaicin-induced spontaneous pain was aslo assessed for 10 min. For testing mechanical sensitivity, mice were put in boxes on an elevated metal mesh floor and stimulated hindpaw with a series of von Frey hairs with logarithmically incrementing stiffness (0.02-2.56 grams, Stoelting), presented perpendicular to the plantar surface. It was determined the 50% paw withdrawal threshold using Dixon's up-down method^40. For testing heat sensitivity, mice were placed in plastic boxes and tested heat sensitivity using Hargreaves radiant heat apparatus (IITC Life Science Inc.). The basal paw withdrawal latency was adjusted to 9-12 seconds and set a cut-off of 20 seconds to prevent tissue damage. The percent maximal possible antinociceptive effect (% M.P.E) was calculated using the equation % M.P.E.=[(PL−BL2)/(BL1−BL2)]×100. BL1, baseline latency before inflammation; BL2, baseline latency after inflammation but before drug injection; PL, latency post drug injection.

CRG-induced edema = assay: Carrageenan paw edema (paw volume, plethysmometer); format: in vivo, mice; settings: intraplantar pretreatment; 4 h after CRG injection
Description: Measurement of paw volume. Paw swelling (edema) after carrageenan injection was determined by water displacement plethysmometer (Ugo Basile, Italy). The Plethysmometer is a microcontrolled volume meter, specially designed for accurate measurement of the rat/mouse paw swelling. It consists of a water filled Perspex cell into which the paw is dipped. A transducer of original design records small differences in water level, caused by volume displacement.

[1] = system: proinflammatory cytokines (TNF-α, IL-1β, IL-6) and chemokines (MCP-1, MIP-1α); assay: Cytokine array of inflamed hindpaw skin after carrageenan; format: in vivo, mouse; settings: intraplantar RvE1 20 ng prior to CRG; 2 h after CRG
Description: The mouse cytokine array kits were purchased from R&D. Protein samples were prepared in the same way as for Western blotting analysis. Each reaction was performed according to manufacturer's protocol using 400 μg proteins. In brief, protein samples were incubated with a blot (array) that is pre-coated with 40 cytokines/chemokines for 24 h at 4° C. The remaining procedures were similar to that of Western blotting. Also see Gao et al., 2009^12.

[2] = system: capsaicin-induced spontaneous pain; assay: Capsaicin-induced acute spontaneous pain; format: in vivo, mice
Description: as §1, with “The percent maximal possible antinociceptive effect (% M.P.E) was calculated using the equation % M.P.E.=[(PL−BL2)/(BL1−BL2)]×100.” left out, “injection. Intrathecal injection: […] To examine whether pretreatment of RvE1 attenuates capsaicin-induced acute spontaneous pain, RvE1 and capsaicin were mixed and injected at the same time (FIG. 3f). […]” for “injection.”

[3] = system: phosphorylation of ERK (pERK); assay: ERK phosphorylation (pERK) in cultured DRG neurons; format: cell-based, mice; settings: dissociated DRG neurons; RvE1 10 ng/ml; TNF-α 10 ng/ml; capsaicin 500 nM
Description: Primary DRG culture. DRGs were aseptically removed from 4-week old mice and digested them first with collagenase (1.25 mg/ml)/dispase-II (2.4 units/ml) at 37° C. for 90 min then with 0.25% trypsin for 8 min at 37° C. DRG cells were mechanically dissociated with a flame polished Pasteur pipette in the presence of 0.05% DNAse I and plated these cells onto poly-D-lysine and laminin-coated slide chambers. DRG cells were grown in a neurobasal defined medium (with 2% B27 supplement, Invitrogen) in the presence of NGF (50 ng/ml) for 24 h and replaced the medium with NGF-free medium before stimulation. For immunocytochemistry, DRG cells were fixed with 4% paraformaldehyde for 30 min and incubated the cells with pERK primary antibody (rabbit, Cell signaling, 1:500) overnight.
Resolvins were also used for intraplantar injection. RvD1 or RvE1 was injected into the plantar surface of a hindapaw [20 ng, 20 μl , in 1% ethanol (Supplementary FIG. 5a, 5b) or in 10% ethanol (FIG. 2e, Supplementary FIG. 1d)]. […]
pERK immunocytochemistry in DRG neurons: DRG cells grown in slide chambers were fixed with 4% paraformaldehyde for 30 min and incubated with pERK primary antibody (Rabbit, Cell Signaling, 1:500) at 4° C. overnight. The stained cells were examined with a Nikon fluorescence microscope, and images in 3 randomly-selected optic fields from each chamber were captured with a CCD Spot camera. […]

[4] = system: formalin-induced inflammatory pain; assay: Formalin-induced spontaneous inflammatory pain (licking/flinching duration); format: in vivo, mice; settings: intraplantar RvE1 20 ng, 10 min before intraplantar formalin

Compound: CC[C@@H](O)/C=C/C=C\C[C@@H](O)/C=C/C=C/C=C\[C@@H](O)CCCC(=O)O [RvE1, 5S,12R,18R-trihydroxyeicosapentaenoic acid]
- baseline sensory thresholds (naïve mice): did not alter baseline sensory thresholds
- CRG-induced edema (paw volume) (CRG-induced edema): reducing
- expression of proinflammatory cytokines (TNF-α, IL-1β, IL-6) and chemokines (MCP-1, MIP-1α) in inflamed hindpaws [1]: reducing
- intrathecal capsaicin-evoked acute spontaneous pain ([2]; intrathecal RvE1 mixed with capsaicin 0.5 μg): prevented
- intraplantar capsaicin-induced acute pain ([2]; peripheral (intraplantar) RvE1 10 min before capsaicin 5 μg): reduced
- TNF-α- and capsaicin-elicited increases in phosphorylation of ERK (pERK) [3]: abolished
- formalin-evoked acute pain [4]: rapidly attenuated
